# What was measured:
# [1] = tested on: capillary vessel hyperplasia (experimental diabetic retinopathy); experiment: therapeutic effect on experimental diabetic retinopathy; type: in vivo, rat (wister); conditions: for improving effect of pathologic state / beneficial effect on the pathologic state: I.P.; for improving effect of pathologic state: ten consecutive days; for beneficial effect on the pathologic state: ten days
# Method: First, streptozocin in an amount of 65 mg/kg was administered to a six-week aged male wister rat from its vena caudalis, and about three months thereafter, 3,3'-iminodipropionitrile was administered. Rats in which abnormal growth of capillary vessel (hyperplasia retinitis) was observed were screened out and were subjected to a medicament administration test with ten rats as a group.
# For comparison purposes, the effect of the medroxyprogesterone acetate (MPA), the conventional substance for inhibiting the neovascularization, was also tested by the same procedure as described above.
# [2] = tested on: neovascularization of chorio-allantoic membranes; experiment: neovascularization inhibition on chorio-allantoic membranes of fertilized fowl eggs; type: in vivo; conditions: for neovascularization inhibitory rate: two days; for neovascularization inhibitory effect (in words): commercially available
# [3] = tested on: neovascularization in the cornea; experiment: inhibition of neovascularization in the cornea of rabbits (slow-releasing pellet); type: in vivo, rabbit; conditions: 100 μg and 1.0 mg in pellet with 10 μg prostaglandin E1 or 200 μg cuprous chloride; seven days
# [4] = toxicity in rats, parenteral administration; type: in vivo, rat; conditions: 500 to 3,500 mg/kg in 50% dimethylsulfoxide, I.V. or I.P.
smiles,measurement,setting,value
"CC(=O)O[C@]1(C(C)=O)CC[C@H]2[C@@H]3C[C@H](C)C4=CC(=O)CC[C@]4(C)[C@H]3CC[C@@]21C [MPA, medroxyprogesterone acetate, reference compound]",improving effect of pathologic state,"[1]; Table 3, 1.5 mg/kg",-
same,improving effect of pathologic state,"[1]; Table 3, 3.0 mg/kg",+ (improving effects of pathologic state of 10 to 30%)
same,improving effect of pathologic state,"[1]; Table 3, 4.5 mg/kg",+ (improving effects of pathologic state of 10 to 30%)
same,improving effect of pathologic state,"[1]; Table 3, 6.0 mg/kg",++ (30 to 70%)
"Nc1ncnc2c1ncn2[C@@H]1O[C@H](COP(=O)(O)OS(=O)(=O)O)[C@@H](OP(=O)(O)O)[C@H]1O [PAPS, 3-phosphoadenosine 5'-phosphosulfate]",neovascularization inhibitory rate,"[2]; Table 1, commercially available (Sigma), dose 1 μg",+ (10 to 80% (+))
same,neovascularization inhibitory rate,"[2]; Table 1, commercially available (Sigma), dose 10 μg",++ (80 to 70% (++))
same,neovascularization inhibitory rate,"[2]; Table 1, commercially available (Sigma), dose 100 μg",++ (80 to 70% (++))
same,neovascularization inhibitory rate,"[2]; Table 1, commercially available (Sigma), dose 1,000 μg",+++ (70 to 100% (+++))
same,neovascularization inhibitory rate,"[2]; Table 2, enzyme-synthesized, dose 1 μg",+ (10 to 80% (+))
same,neovascularization inhibitory rate,"[2]; Table 2, enzyme-synthesized, dose 10 μg",++ (80 to 70% (++))
same,neovascularization inhibitory rate,"[2]; Table 2, enzyme-synthesized, dose 100 μg",++ (80 to 70% (++))
same,neovascularization inhibitory rate,"[2]; Table 2, enzyme-synthesized, dose 1,000 μg",+++ (70 to 100% (+++))
same,neovascularization inhibitory effect (in words),[2]; dose 10 μg,slight effect
same,neovascularization inhibitory effect (in words),[2]; dose at least 100 μg,perfect neovascularization inhibitory effect
same,neovascularization inhibition (in words),"[2]; enzyme-synthesized, dose range 1 to 1,000 μg",inhibited neovascularization in a dose-dependent manner
same,inhibition of neovascularization caused by prostaglandin E1 or cuprous chloride,[3],perfectly inhibit the neovascularization
same,intoxication or lethality,[4],no cases of intoxication or lethality
same,beneficial effect on the pathologic state,[1]; 1.5 mg/kg administration group,10%
same,beneficial effect on the pathologic state,[1]; 3.0 mg/kg group,70%
same,beneficial effect on the pathologic state,[1]; 6.0 mg/kg group,at least 80%
same,improving effect of pathologic state,"[1]; Table 3, 1.5 mg/kg",+ (improving effects of pathologic state of 10 to 30%)
same,improving effect of pathologic state,"[1]; Table 3, 3.0 mg/kg",++ (30 to 70%)
same,improving effect of pathologic state,"[1]; Table 3, 4.5 mg/kg",+++ (70 to 100%)
same,improving effect of pathologic state,"[1]; Table 3, 6.0 mg/kg",+++ (70 to 100%)
same,therapeutic effect as compared with MPA (in words),"[1]; any of the doses (1.5-6.0 mg/kg), compared with MPA",excellent therapeutic effect

# From patent US5401725A, “Neovascularization inhibition by adenosine-5'-phosphosulfates” (Unitika Ltd., priority 1990, dated 1995)
